# Data taken from patent US20180161427A1, “COMBINATION OF AN ANTI-IL-10 ANTIBODY AND A CPG-C TYPE OLIGONUCLEOTIDE FOR TREATING CANCER” (MERCK SHARP & DOHME CORP., priority 2015, published 2018).
# Strand notation (5' to 3'): a small letter for the sugar, then the base; units joined by * are phosphorothioate-linked, units joined directly phosphodiester-linked; [ ] holds rarer units or linkages, { } end groups; capitals alone tell only the bases. d = 2'-deoxy (DNA)
# Assays:
# [1] = test system: Human peripheral blood mononuclear cells (PBMCs); test: Induction of IFNα2a and IL-10 in human PBMCs (48 hours, Meso Scale Discovery kits); assay type: cell-based
# Experimental: Human peripheral blood mononuclear cells (PBMCs) were isolated from buffy coats from two donors with Ficoll-Paque™ PLUS (GE Healthcare Bio-Sciences, Pittsburgh, Pa.) using standard Ficoll separation methods. Isolated PBMCs were washed twice in phosphate buffered saline (PBS) containing 2% fetal bovine serum (FBS), and 2 mM ethylenediaminetetraacetic acid (EDTA). The cells were resuspended and cultured in 96-well U-bottom plates at 1×10^6 cells per well in RPMI 1640 containing 10% FBS, 2 mM L-glutamine, 100 U/mL pencillin and 100 μg/mL streptomycin. The cells were cultured in the presence of C59-08 at doses ranging from 0.016 μM to 5 μM or 7 μM control ODN 1040 in a humidifed incubator at 37° C., 5% CO2 in final volume of 0.2 mL for 48 hours. Supernatants were harvested and assayed for IFNα2a and IL-10 using Meso Scale Discovery human IFNα2a and human IL-10 tissue culture kits (Rockville, Md.).
# TC-1 tumors = test: Anti-tumor activity in mouse TC-1 bilateral tumor model; assay type: in vivo; settings: antibody 10 mg/kg IP
# Source text: Approximately seven to eight week old female C57BL/6J mice were obtained from Jackson Laboratory (Sacramento, Calif.). Conventional animal chow and water were provided ad libitum. Animals were housed for one week prior to the start of the study. The average weight of the animals at the start of the study (i.e. tumor implantation) was 19 grams.
# The TC-1 cell line, provided by Johns Hopkins University (Baltimore, Md.) is derived from mouse primary lung epithelial cells that were cotransformed with human papilloma virus (HPV-16) E6 and E7 and c-Ha.ras oncogene (Lin K Y et al. Cancer Res. 1996 Jan. 1, 56(1):21-6). TC-1 cells are syngeneic to C57BL6/J strain.
# The TC-1 cells were cultured in DMEM supplemented with 10% fetal bovine serum and 0.4 mg/mL Geneticin. Sub-confluent TC-1 cells were injected subcutaneously (SC) in 0.1 mL of serum-free DMEM in both lower dorsal flanks (1×10^5 in right flank and 0.5×10^5 in left flank) of each animal. Animals were first shaved with electronic clippers in the areas that were used for the implantation.
# Tumors were measured the day before the first dose and twice a week thereafter. Tumor length and width were measured using electronic calipers and tumor volume determined using the formula Volume (mm^3)=0.5×Length×[…] where length is the longer dimension. Animals were weighed the day before the first dose and twice a week thereafter. […]
# [2] = test system: human tumor histocultures (renal cell carcinoma, NSCLC, bladder and colorectal cancer); test: Ex vivo treatment of human tumor histocultures, mRNA expression by real-time quantitative PCR; assay type: cell-based; settings: 0.1, 0.5, and 1 μM, 24 hours; RCC (n=5), NSCLC (n=3), bladder (n=1), colorectal (n=1) histocultures
# Experimental: Human tumor specimens from patients were obtained from commercial sources (Bio-Options, Folio, Coversant Bio, and Boston BioSource) and University of Rochester.
# Fresh tumor tissues were collected within 1 hour following surgery and placed into AQIX transportation media (AQIX, UK). Tissues were transported overnight at 4° C. to Merck Research Laboratories, Palo Alto, Calif.
# The tumors were embedded in UltraPure™ low melting point agarose (Invitrogen, Carlsbad, Calif.) and were cut 400 μm with Mcllwain™ Tissue Chopper (Stoelting Co., Wood Dale, Ill.). The tumor slices were first set on the Millicell-CM cell culture insert (Millipore, Billerica, Calif.) and cultured at the interface between air and medium of 1 ml DMEM supplemented with 4.5 g/L glucose, L-glutamine, sodium pyruvate (Mediatech, Inc., Manassas, Va.), 10% FBS (SAFC Biosciences, Lenexa, Kans.), 100 U/ml penicillin, and 100 ug/ml streptomycin in humidifed incubator at 37° C., 5% CO2.
# The tumor slices were cultured in the presence of 0.1, 0.5, and 1 μM C59-08 or 1 μM control ODN 1040 for 24 hours. The tumor samples were snap frozen in dry ice and stored at […] prior to processing.
# Total RNA was isolated by homogenization into RNA STAT-60 (Tel-Test, Friendswood, Tex.) using a polytron homogenizer. The total RNA was extracted according to the manufacturer's protocol. After precipitation with isopropanol, total RNA was re-extracted with phenol:chloroform:isoamyl alcohol (25:24:1) (Sigma-Aldrich, St. Louis, Mo.) using phase-lock light tubes.
# DNase-treated total RNA was reverse-transcribed using QuantiTect Reverse Transcription (Qiagen, Valencia, Calif.) according to manufacturer's protocol. […] Real-time quantitative PCR on 10 ng of cDNA from each sample was performed using unlabeled primers at 900 nM each with 250 nM of FAM-labeled probe in a TAQMAN™ RTqPCR reaction on the Fluidigm Biomark sequence detection system (Fluidigm, Foster City, Calif.). Levels of ubiquitin were measured in a separate reaction and were used to normalize the data by the Δ-Δ Ct method. […]
# [3] = 2 donors, 0.016 μM to 5 μM, supernatant
substance,measurement,setting,value
"5′-TCGAACGTTCGAACGTTCGAACGTTCGAAT-3′ (DNA dT*dC*dG*dA*dA*dC*dG*dT*dT*dC*dG*dA*dA*dC*dG*dT*dT*dC*dG*dA*dA*dC*dG*dT*dT*dC*dG*dA*dA*dT) [Compound C59-08, oligodeoxynucleotide with a phosphorothioate backbone and 5′OH and 3′OH; CpG class C type TLR9 agonist]",optimal concentration for IFNα2a and IL-10 production,[1],0.2 µM
same,IFNα2a production,[1]; [3],induces
same,IL-10 production,[1]; [3],induces
same,Complete regressions (CRs) of non-injected tumors,"TC-1 tumors; left flank tumor, ODN IT only in right tumors on Days 0, 4, 8, 12",did not result in CRs
same,Complete regressions (CRs) of injected tumors,"TC-1 tumors; right flank tumor, ODN IT (C59-08 2.5 mg/kg, CpG 1826 1 mg/kg) on Days 0, 4, 8, 12",did not result in CRs
same,"mRNA expression of IFNα-inducible genes (IFNα2, MCP1, MCP2, OAS2, IP-10, GBP1, ISG-54, MxB, and TRAIL)",[2],induced
same,"mRNA expression of cytokines (IFNβ, IL-10, IL-12, IL-6, and TNFα)",[2],induced
same,"mRNA expression of immune activation markers (CD80, CD86, CD40, CD70 and OX40L)",[2],induced
